Here are results for six compounds from patent US9187458B2, “Cyanoquinoline derivatives” (Tianjin Hemay Bio-Tech Co., LTD., priority 2010, dated 2015).

Structures are written as SMILES.

One assay concerns A431 cells. The assay is described as follows: A431 Cell Growth Inhibition Test (MTT Assay). The following applies: Homo sapiens, A-431, 68 h, compound 1 μM, 68 h incubation, read-out: Growth Inhibition Ratio (%). It counts as cell-based, human. The procedure: A431 Cell Growth Inhibition Test (MTT Assay)
1. Cell strains: A431 (human epithelial […] cell strains);
Culture medium: 45% DMEM, 45% F12+10% FBS;
1. A plate (10 cm) of cells in logarithmic growth phase normally cultured was collected;
2. The culture solution was sucked out. The plate was washed with 5 ml of PBS 1-2 times;
3. PBS was sucked out, and 2 ml of 0.25% pancreatin was added to infiltrate the cells for 1 min;
4. The pancreatin was sucked out, and the culture plate was placed in an incubator. Digestion was carried out for about 15 min at 37° C.;
5. 4 ml of complete culture solution was added in the culture plate to stop the digestion. The cells were carefully scoured with micropipette (1 ml) to give a uniform cell suspension. The suspension was implanted into a 96-well cell culture plate by 2500 cells/100 μl per well. The culture plate was incubated overnight under 5% CO2 at 37° C. In day 2, 100 μl of culture solution comprising the compound was added in each well, and further incubated for 68 h under 5% CO2 at 37° C.
6. The culture solution was sucked out;
7. 100 μl of serum-free culture solution containing 0.5 mg/ml MTT was added in each well, and incubated for 4 h;
8. The culture solution was carefully sucked out;
9. 100 μl of DMSO was added into each well and vibrated to dissolve;
10. OD values were determined at 490 nM.
(§1) 1. Calculation of Relative Inhibition Ratio The inhibition ratio of a compound on cell growth=(PC−n)/(PC−NC)×100%
IC50: concentration of a compound where inhibition ratio was 50%. IC50 values were fitted with Origin7.5.

A further assay has as its system BT-474 cells. The assay is described as follows: BT-474 Cell Growth Inhibition Test (SRB Assay). It counts as cell-based, human. To be noted: Homo sapiens, 70 h incubation; for inhibition at 1 µM: BT-474, 70 h, compound 1 μM, read-out: Growth Inhibition Ratio (%). The procedure:
BT-474 Cell Growth Inhibition Test (SRB Assay)
1. Cell strains: BT-474 (human breast tumor cell strains);
2. SRB: available from Sigmaaldrich, goods number: S9012, lot number: 047K3751. SRB was reserved at the room temperature. 0.4% (w/v) of working solution was formulated with 1% of glacial acetic acid. The solution was reserved at the temperature of 4° C.; anti-tumor compounds; DMSO.
Culture medium (90% EMEM+10% FBS+0.1 mM NEAA, reserved at 4° C.);
1. A plate (10 cm) of cells in logarithmic growth phase normally cultured was collected. The culture solution was sucked out. The plate was washed with 5 mL of PBS 1-2 times;
2. PBS was sucked out, and […] of 0.25% pancreatin was added to infiltrate the cells for 30 s;
3. The pancreatin was sucked out. The culture plate was pleaced in an incubator. Digestion was carried out for about 5 min at 37° C.;
4. 3 mL of complete culture solution was added to the culture plate to stop the digestion. The cells were carefully scoured with micropipette (1 ml) to give a uniform single cell suspension;
5. Cell suspension was counted. The suspension was diluted to 1×10^5/ml. The resulting suspension was developed uniformly on a plate. The plate was incubated under 5% CO2 at 37° C. overnight. In day 2, 80 μL of complete culture medium was added in each well and then 20 μL of culture solution comprising a compound was added. The mixture was incubated for 70 h under 5% CO2 at 37° C.
6. The culture solution was sucked out. 100 uL of TCA fixed cells which were diluted to 10% were added to each well. The plate was kept in a refrigerator for 1 h at 4° C.
7. TCA stationary liquid was sucked out. Each well was washed with 150 μL of ddH2O five times;
8. After the stationary liquid was cleansed, the plate was dried in the air at the room temperature;
9. 60 μL of SRB staining solution was added in each well. The well was stained for 15 min at the room temperature;
10. The SRB staining solution was sucked out. Each well was washed with 150 μL of 1% glacial acetic acid five times;
11. After the SRB staining solution was cleansed, the plate was dried in the air at the room temperature;
12. 100 μL of 10 mM Tris was added in each well. The plate was vibrated to dissolve out SRB;
13. OD values were determined at 570 nM.
as §1
IC50: Concentration of a compound where inhibition ratio was 50%. IC50 values were fitted with Origin7.5.

With `CN(C)C/C=C/C(=O)Nc1cc2c(Nc3ccc(F)c(Cl)c3)c(C#N)cnc2cc1OC1CCOC1` (mixture of isomers) [Example 176, (E/Z)-N-(4-(3-CHLORO-4-FLUOROPHENYLAMINO)-3-CYANO-7-(TETRAHYDROFURAN-3-YL-OXY)QUINOLIN-6-YL)-4-(DIMETHYLAMINO)-BUT-2-ENAMIDE], the inhibition at 1 µM in the assay with A431 cells is 79%; with BT-474 cells, 89%.

Regarding `C#Cc1cccc(Nc2c(C#N)cnc3cc(OC4CCOC4)c(NC(=O)/C=C/CN(C)C)cc23)c1` (mixture of isomers) [Example 177, (E/Z)-N-(3-CYANO-4-(3-ETHYNYLPHENYLAMINO)-7-(TETRAHYDROFURAN-3-YL-OXY)QUINOLIN-6-YL)-4-(DIMETHYLAMINO)-BUT-2-ENAMIDE], the inhibition at 1 µM in the assay with A431 cells amounted to 81%; in the assay with BT-474 cells, 87%.

For the compound `CN(C)C/C=C/C(=O)Nc1cc2c(Nc3ccc(OCc4cccc(F)c4)c(Cl)c3)c(C#N)cnc2cc1OC1CCOC1` (mixture of isomers) [Example 180, (E/Z)-N-(4-(4-(3-FLUOROBENZYLOXY)-3-CHLOROPHENYLAMINO)-3-CYANO-7-(TETRAHYDROFURAN-3-YL-OXY)QUINOLIN-6-YL)-4-(DIMETHYLAMINO)-BUT-2-ENAMIDE], the inhibition at 1 µM was determined as 73% in the assay on A431 cells and 78% with BT-474 cells.

Consider `Cc1ccccc1COc1ccc(Nc2c(C#N)cnc3cc(O[C@H]4CCOC4)c(NC(=O)/C=C/CN(C)C)cc23)cc1Cl` [Example 166, (S,E)-N-(4-(4-(2-METHYLBENZYLOXY)-3-CHLOROPHENYLAMINO)-3-CYANO-7-(TETRAHYDROFURAN-3-YL-OXY)QUINOLIN-6-YL)-4-(DIMETHYLAMINO)-BUT-2-ENAMIDE], for which the inhibition at 1 µM with A431 cells and with BT-474 cells was 69% in each case.

For the compound `Cc1ccc(COc2ccc(Nc3c(C#N)cnc4cc(O[C@H]5CCOC5)c(NC(=O)/C=C/CN(C)C)cc34)cc2Cl)cc1` [Example 167, (S,E)-N-(4-(4-(4-METHYLBENZYLOXY)-3-CHLOROPHENYLAMINO)-3-CYANO-7-(TETRAHYDROFURAN-3-YL-OXY)QUINOLIN-6-YL)-4-(DIMETHYLAMINO)-BUT-2-ENAMIDE], the inhibition at 1 µM in the assay with A431 cells and in the assay on BT-474 cells was 75% throughout.

On to `C#Cc1cccc(Nc2c(C#N)cnc3cc(O[C@H]4CCOC4)c(NC(=O)/C=C/CN(C)CCO)cc23)c1` [Example 190, (S,E)-N-(3-CYANO-4-(3-ETHYNYLPHENYLAMINO)-7-(TETRAHYDROFURAN-3-YL-OXY)QUINOLIN-6-YL)-4-(N-METHYLETHANOLAMINO)-BUT-2-ENAMIDE], for which the inhibition at 1 µM in the assay on A431 cells came out at 79%. This compound displayed an IC50 with BT-474 cells of 0.267 µM.
